{"source": "patent US8119653B2", "about": "“Belactosin derivatives as therapeutic agents/biological probes and their synthesis” (The Texas A&M University System, priority 2006, dated 2012)", "origin": "cited, not measured here", "key": {"[1]": {"settings": "in vivo"}}, "data": [{"compound": "CCCCCCCCCCC[C@@H](C[C@@H]1OC(=O)[C@H]1CCCCCC)OC(=O)[C@H](CC(C)C)NC=O", "note": "[Orlistat]", "values": [{"measurement": "solubility", "result": "poor"}, {"measurement": "bioavailability", "setting": "[1]", "result": "poor"}, {"measurement": "tumor growth in vivo", "setting": "tumor growth", "result": "can inhibit tumor growth"}, {"measurement": "effect on tumor cells in vitro", "setting": "tumor cells", "result": "cytotoxic and cytostatic"}]}]}
